Measured values: US20050209157A1, “Short bioactive peptides and methods for their use” (priority 2001, published 2005)
Values after ≈ are worked out from the molar mass of the structure shown. Where two headings read alike, the source gives them in different places. No end group written: not given here.

Legend:
Escherichia coli 25922 = test: microbe, parasite or virus in culture
Excerpt: Synergy between peptide Shiva-10 (SEQ ID NO:4) and various antimicrobial agents was investigated against Escherichia coli 25922.
Synergy between tetracycline and various peptides was investigated against Escherichia coli 25922 MBC. […] When combined with the peptides, the concentration of tetracycline was held at 1.5 ppm.

Staph. aureus 29213 = test: microbe, parasite or virus in culture; settings: for MBC: Staphylococcus aureus, 29213, read-out: MBC, Without peptide; for MBC, With 5 μg/mL peptide: with 5 μg/mL peptide Shiva-10
Excerpt: This experiment determined the peptide MBC in the absence of the antimicrobial agent, or in the presence of the indicated concentration of antimicrobial agent

in vitro [1] = format: cell-based, human; settings: human, human red blood cells
S. epidermidis C621 = format: cell-based, Staphylococcus epidermidis; settings: mean of three; 16 to 20 hours at 35° C.
P. acne ATCC 6919 = test: Antimicrobial assays II, NCCLS broth microdilution MIC; format: cell-based, Propionibacterium acnes; settings: mean of three, in µg/mL
WI38 = settings: MTT, 24 hours with peptide; normal fibroblast line
P. aeruginosa = format: cell-based, Pseudomonas aeruginosa; settings: P. aeruginosa H744; MIC of nalidixic acid with peptide at ¼ MIC
How it was run: (§1)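 Efflux-mutant strains were tested with two-fold serial dilutions of chloramphenicol or nalidixic acid, alone and with peptide held at ¼ of its own MIC.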

P. aeruginosa H774 = format: cell-based, Pseudomonas aeruginosa; settings: P. aeruginosa H744; nalidixic acid + peptide at ¼ MIC; 0.5 or less = synergy
How it was run: as §1

P. aeruginosa H374 = format: cell-based, Pseudomonas aeruginosa; settings: for FIC Index: 0.5 or less = synergy
How it was run: as §1

S. pneumoniae C718 = test: Antimicrobial assays II, NCCLS broth microdilution MIC; format: cell-based, Streptococcus pneumoniae; settings: mean of three
[2] = system: yeast (Saccharomyces cerevisiae); test: Antimicrobial assay I, yeast assay in RPMI 1640; format: cell-based; settings: RPMI 1640 media
MCF7 = test: Anti-cancer assay, MTT, LD50; format: cell-based; settings: MCF7 breast adenocarcinoma line, MTT, 24 hours with peptide
Excerpt: (§2) Numbers are LD50 values (μg/mL).

PC3 = test: Anti-cancer assay, MTT, LD50; format: cell-based; settings: 24 hours with peptide, prostate adenocarcinoma
Excerpt: as §2

BMKC = test: Anti-cancer assay, MTT, LD50; format: cell-based; settings: BMKC cloned melanoma line, 24 hours with peptide
Excerpt: as §2

H1299 = test: Anti-cancer assay, MTT, LD50; format: cell-based; settings: 24 hours with peptide, lung large cell carcinoma
Excerpt: as §2

HeLaS3 = test: Anti-cancer assay, MTT, LD50; format: cell-based; settings: 24 hours with peptide, cervical carcinoma
Excerpt: as §2

SW480 = test: Anti-cancer assay, MTT, LD50; format: cell-based; settings: SW480 colon adenocarcinoma line, 24 hours with peptide
Excerpt: as §2

S. aureus (MRSA) = format: cell-based, Staphylococcus aureus; settings: mean of three; 16 to 20 hours at 35° C.
S. pyogenes M76 = test: Antimicrobial assays II, NCCLS broth microdilution MIC; format: cell-based, Streptococcus pyogenes; settings: mean of three; 16 to 20 hours at 35° C.
in vitro [3] = settings: human, WI38 normal lung fibroblast cells
S. pyogenes ATCC19615 = test: Antimicrobial assays II, NCCLS broth microdilution MIC; format: cell-based, Streptococcus pyogenes; settings: mean of three, in µg/mL
[4] = system: Pseudomonas aeruginosa ATCC 9027; test: Antimicrobial assay I, MIC by OD measurement; format: cell-based; settings: 37° C. for 24 hours, absorbance 620 nm
[5] = system: Staphylococcus aureus ATCC 6538; test: Antimicrobial assay I, MIC by OD measurement; format: cell-based; settings: 37° C. for 24 hours, absorbance 620 nm
[6] = system: human fibroblast cells (WI38); test: Stimulation and proliferation of fibroblasts, CyQuant; format: cell-based; settings: for Peptide treated cell activity Stimulation relative to control: 48 hrs, 2.0% FBS
Protocol: Procedure: Different cell lines were maintained with different medium according to the ATCC. […] The cell suspension was centrifuged for 10 minutes at 100 rpm. The supernatant was removed and discarded without disturbing the cell pellet. A concentrated cell suspension was prepared in 1.0 ml of medium to obtain a density of about 10^5 to 10^6 cells/ml. The actual cell density was determined by counting the cells using a hemocytometer with the Trypan Blue method. Cell numbers were adjusted to obtain equal number of cells per 200 μl volume. Cells were plated with 0% FBS, 2% FBS, 3% FBS and 5% FBS. The plates were incubated at 37° C. for a time sufficient to allow the cells to attach. For long-term proliferation studies, 100 μl of medium was removed from each well each day and replaced with fresh medium.
At the desired time, the medium was removed from the adherent cells in a 96 well plate. These cells were already treated with test agents. The cells were frozen in the plate at −70° C. for 30 minutes. The cells were thawed at room temperature. CyQuant GR dry/Cell Lysis Buffer (200 μl) was added to each sample cell. The cells were incubated at room temperature for 15 minutes while protected from the light. Fluorescence was measured using fmax at 485-538 nm.
The above CyQuant protocol was used to examine possible peptide stimulation and/or proliferation of fibroblasts. […] This is shown by the addition of Fetal Bovine Serum (FBS) to the medium. […] Control cells and peptide treated cells are with medium and FBS as indicated.

fungal = test: Presently preferred antifungal peptides, selected from the MIC/MBC data; format: cell-based; settings: X = preferred
Excerpt: The peptide's “length” is the number of amino acid residues in the sequence.

[7] = system: human red blood cells (RBC); test: in vitro; format: cell-based; settings: human red blood cells
[8] = system: Escherichia coli ATCC 25922; test: Antimicrobial assay I, modified protocol (tryptic soy broth), MBC; settings: minimum bactericidal concentration, Table 4
[9] = system: Candida albicans ATCC 10231; test: Antimicrobial assay I, modified protocol (tryptic soy broth), MFC; settings: minimum fungicidal concentration, Table 4
[10] = system: Pseudomonas aeruginosa ATCC 27853; test: Antimicrobial assay I, modified protocol (tryptic soy broth), MBC; settings: minimum bactericidal concentration, Table 4
cancer cell lines = test: Anti-cancer assays, MTT, summary over the cancer cell lines; format: cell-based; settings: X = preferred
[11] = system: human leukocyte (WBC) cells; test: Stimulation and proliferation of leukocytes, Alamar Blue; format: cell-based; settings: 48 hours
[12] = system: Stapholococcus aureus ATCC 25923; test: Antimicrobial assay I, modified protocol (tryptic soy broth), MBC; settings: minimum bactericidal concentration, Table 4
[13] = Escherichia coli, 25922, read-out: MBC, Without peptide
[14] = pH 7, hemolytic assay, concentration at 50% hemolysis, 1 hour at 37° C., read-out: LD50

CCN1CCN(C(=O)N[C@@H](C(=O)N[C@@H]2C(=O)N3C(C(=O)O)=C(CSc4nnnn4C)CS[C@H]23)c2ccc(O)cc2)C(=O)C1=O [Cefoperazone]
MBC (Escherichia coli 25922; [13]): 150 µg/mL
MBC, With peptide (Escherichia coli 25922; with 15 μg/mL peptide Shiva-10): 2.5 µg/mL
MBC (Staph. aureus 29213): 10 µg/mL (≈ 15.5 µM)
MBC, With 5 μg/mL peptide (Staph. aureus 29213): 2.5 µg/mL (≈ 3.87 µM)

CC(C)C[C@H](NC(=O)[C@H](C)NC(=O)[C@H](CC(C)C)NC(=O)[C@H](C)NC(=O)[C@H](CC(C)C)NC(=O)[C@H](CCCCN)NC(=O)[C@H](C)NC(=O)[C@H](CC(C)C)NC(=O)[C@H](CCCCN)NC(=O)[C@H](CCCCN)NC(=O)[C@H](C)NC(=O)[C@H](CC(C)C)NC(=O)[C@H](CCCCN)NC(=O)[C@H](CCCCN)NC(=O)[C@H](CC(C)C)NC(=O)[C@H](CCCCN)NC(=O)[C@H](CCCCN)NC(=O)[C@H](C)NC(=O)[C@H](CC(C)C)NC(=O)[C@H](CCCCN)NC(=O)[C@H](CCCCN)NC(=O)[C@H](C)NC(=O)[C@@H](N)Cc1ccccc1)C(N)=O [P11, reference compound]
HC50 at 1 h (in vitro [1]; [14]): 76 µg/mL
MBC, Without peptide (Escherichia coli 25922; agent alone): 50 µg/mL
MBC, Without peptide (Staph. aureus 29213; agent alone): 200 µg/mL (≈ 78.9 µM)

CC(C)C[C@H](NC(=O)[C@H](C)NC(=O)[C@H](CC(C)C)NC(=O)[C@H](CCCCN)NC(=O)[C@H](C)NC(=O)[C@H](CC(C)C)NC(=O)[C@H](CCCCN)NC(=O)[C@H](CCCCN)NC(=O)[C@H](C)NC(=O)[C@H](CC(C)C)NC(=O)[C@H](CCCCN)NC(=O)[C@H](C)NC(=O)[C@H](CC(C)C)NC(=O)[C@H](CCCCN)NC(=O)[C@H](CCCCN)NC(=O)[C@H](C)NC(=O)[C@@H](N)Cc1ccccc1)C(N)=O [P35]
S. epidermidis C621 MIC (S. epidermidis C621): 4 µg/mL
P. acne MIC (P. acne ATCC 6919): 4
WI38 LD50 (WI38): 8 µg/mL
HC50 at 1 h (in vitro [1]; [14]): 200 µg/mL
MIC Nal-comb. (P. aeruginosa): 624 µg/mL
FIC Index (P. aeruginosa H774): 1.25
MIC Cm-comb. (P. aeruginosa H374; MIC of chloramphenicol with peptide at ¼ MIC): 16 µg/mL
MIC Nal-comb. (P. aeruginosa H374; MIC of nalidixic acid with peptide at ¼ MIC): 10,000 μg/ml
FIC Index (P. aeruginosa H374; chloramphenicol + peptide at ¼ MIC): 1.25
FIC Index (P. aeruginosa H374; nalidixic acid + peptide at ¼ MIC, FIC=0.25+MIC comb/MIC alone): 2.25
S. pneumoniae MIC (S. pneumoniae C718): 4 µg/mL
yeast (MIC or MFC) [2]: 25 µg/mL
LD50 MCF7 (MCF7): 9 µg/mL
PC3 LD50 (PC3): 5 µg/mL
LD50 BMKC (BMKC): 7 µg/mL
H1299 LD50 (H1299): 16 µg/mL
HeLaS3 LD50 (HeLaS3): 27 µg/mL
LD50 SW480 (SW480): 14 µg/mL
S. aureus (MRSA) MIC (S. aureus (MRSA)): 8 µg/mL
MBC of peptide (Staph. aureus 29213; in the presence of Cefoperazone ([…])): 20 µg/mL
MBC of peptide (Staph. aureus 29213; in the presence of Vancomycin (1 ppm)): 32 µg/mL
MBC of peptide (Staph. aureus 29213; peptide alone): 50 µg/mL
S. pyogenes M76 MIC (S. pyogenes M76): 4 µg/mL
CC50 at 24 h (in vitro [3]; LD50 WI38, WI38 normal lung fibroblast line, MTT, 24 hours with peptide): 8 µg/mL (≈ 4.31 µM)
S. pyogenes MIC (S. pyogenes ATCC19615): 16
paerug9027 (MIC) [4]: 200 µg/mL
staph6538 (MIC) [5]: 5 µg/mL

CN(C)[C@@H]1C(O)=C(C(N)=O)C(=O)[C@@]2(O)C(O)=C3C(=O)c4c(O)cccc4[C@@](C)(O)[C@H]3C[C@@H]12 [Tetracycline]
MBC (Escherichia coli 25922; Escherichia coli, 25922, read-out: MBC of tetracycline): 10 µg/mL
MBC (Escherichia coli 25922; [13]): 10 µg/mL
MBC, With peptide (Escherichia coli 25922; with 5 μg/mL peptide Shiva-10): 2.5 µg/mL
MBC (Staph. aureus 29213): 10 µg/mL (≈ 22.5 µM)
MBC, With 5 μg/mL peptide (Staph. aureus 29213): 1 µg/mL (≈ 2.25 µM)

CC1(C)S[C@@H]2[C@H](NC(=O)[C@H](C(=O)O)c3ccsc3)C(=O)N2[C@H]1C(=O)O [Ticarcillin]
MBC (Escherichia coli 25922; [13]): 100 µg/mL
MBC, With peptide (Escherichia coli 25922; with 15 μg/mL peptide Shiva-10): 50 µg/mL
MBC (Staph. aureus 29213): 25 µg/mL (≈ 65 µM)
MBC, With 5 μg/mL peptide (Staph. aureus 29213): 15 µg/mL (≈ 39 µM)

FALALKALKKALKKLKKALKKAL-NH2 [compound 2]
percent cell viability above or below control ([6]; 0.1 μg/ml, 0% FBS): −27%
Peptide treated cell activity Stimulation relative to control ([6]; 0.1 μg/ml): 125%
percent cell viability above or below control ([6]; 0.1 μg/ml, […] FBS): 26%
percent cell viability above or below control ([6]; 1 μg/ml, 0% FBS): −3%
Peptide treated cell activity Stimulation relative to control ([6]; 1 μg/ml): 156%
percent cell viability above or below control ([6]; 1 μg/ml, […] FBS): 57%
percent cell viability above or below control ([6]; 10 μg/ml, 0% FBS): 27%
Peptide treated cell activity Stimulation relative to control ([6]; 10 μg/ml): 122%
percent cell viability above or below control ([6]; 10 μg/ml, […] FBS): 23%
percent cell viability above or below control ([6]; 100 μg/ml, 0% FBS): −82%
Peptide treated cell activity Stimulation relative to control ([6]; 100 μg/ml): 35%
percent cell viability above or below control ([6]; 100 μg/ml, […] FBS): −66%
Anti-fungal (preferred peptide) (fungal): X (Preferred antifungal peptides can be selected as having MIC or MBC values of less than or equal to about 25 μg/ml)
Peptide toxicity RBC LD/50 [7]: 30
HC50 at 1 h (in vitro [1]; pH 7, Table 26, valine substitution, read-out: Hemolysis RBC LD50): 12 µg/mL
MBC E. coli A.25922 [8]: 25 µg/mL
MFC Candida A.10231 [9]: >50 µg/mL
MBC P. aerug A.27853 [10]: 10 µg/mL
Anti-cancer (preferred peptide) (cancer cell lines): X (Preferred anticancer peptides can be selected as having LD50 values of less than or equal to about 25 μg/ml)
Peptide treated cell activity Percent stimulation relative to control ([11]; 0.1 ug/ml): 117%
Peptide treated cell activity Percent stimulation relative to control ([11]; 1 ug/ml): 118%
Peptide treated cell activity Percent stimulation relative to control ([11]; 10 ug/ml): 119%
Peptide treated cell activity Percent stimulation relative to control ([11]; 100 ug/ml): 121%
Peptide treated cell activity Percent stimulation relative to control ([11]; 500 ug/ml): 119%
CC50 at 24 h (in vitro [3]; Peptide toxicity WI-38 LD/50, human fibroblast cells): 66 µg/mL
CC50 at 24 h (in vitro [3]; WI-38 LD50, Table 26, valine substitution): 66 µg/mL
MBC S. aur A.25923 [12]: 25 µg/mL
